The conditions of data set [1]: cited from earlier work.
For data set [2] the following is noted: cited from earlier work; for Log P: octanol/water; for Water/octanol partitioning coefficient, Log P: Measured or estimated, from references.
The nature of data set [3]: Water/octanol partitioning coefficient, Log P.
Text: One such molecular property that is used to predict partitioning potential is the octanol—water partition coefficient; Log P, which is the logarithm of the ratio of the solute concentration in the octanol phase to the solute concentration in the water phase, at a defined temperature.
A short description of data set [4]: Encapsulation of hydrophobic compounds into milk fat globules (loading capacity, encapsulation efficiency). As to conditions: 10% v/v ethanol, 30 min; for % Encapsulation efficiency / maximal loading capacity (LC): room temperature; for maximal loading capacity (LC): maximal value over 50-2500 μM. The class given is physicochemical, bovine. As to the method:
Raw milk was procured from a local market and stored at 4° C. Milk was used for up to 4 days post purchase. MFGs were separated from raw milk using centrifugal separation following a modified version of the method by Gallier et al. (2010) (12). First, raw milk was diluted with Milli-Q water at 9:1 water to milk, and the solution was centrifuged at 3,000×g for 5 min using a fixed angle centrifuge rotor. Cream was then skimmed off the sides of the centrifuged tubes after discarding the aqueous phase. In order to remove more of the milk serum components, cream was reconstituted in water to reach 4% w/v, and subjected to another step of centrifugation at 3,000×g for 5 min Cream was collected as detailed prior, then reconstituted to 20% w/v in Milli-Q water. All separation steps were completed at room temperature.
Encapsulation of test compounds in MFGs was accomplished by mixing ethanolic stock solution of a compound with 20% w/v cream suspended in water. The mixture was gently inverted several times to mix, then allowed in incubate in the dark.
To test the effect of incubation temperature on the partitioning and encapsulation yield and efficiency, RA was added at 250 μM concentration and was allowed to incubate with MFGs for 30 min at 4, 22, and 40° C.
To quantify the amount of compound encapsulated in MFGs, cream was separated from ethanol-containing aqueous phase via centrifugal separation at 3,000 x g for 5 min. Cream was skimmed and added to methanol at 50 mg/mL and vortexed vigorously for 1 min, then centrifuged at 16,000×g for 10 min. Top layer of methanol was collected and absorbance was measured at appropriate wavelength for each compound. An absorbance blank was prepared following the same encapsulation and separation steps in the absence of compound. λmax in methanol (nm) for each compound is reported in Table 1.
Cream (20% w/v in Milli-Q water) that was separated following the steps in Example 2 was further separated via centrifugation at 3,000×g for 5 min. Fat content in cream was measured using a modified Folch method (13). An additional washing step was incorporated where the chloroform/water interface was washed with 1:1 water/methanol solution.

A short description of data set [5]: Loading of curcumin in milk fat globules. The class given is physicochemical, bovine. How it is done:
Raw milk was used within 3-4 days of purchasing during which it was stored at 4° C. MFGs were isolated using a modified form of the method by […] et al. (2010) ^3° . […] Raw cream that was separated following the method stated in Example 31 was used for the quantification of oil content per gram of raw cream. […] The two immiscible phases were separated. […] Chloroform extracts were combined and the solvent was removed under vacuum at room temperature for 24 h. Mass of the isolated lipid from the sample was measured gravimetrically. Measurements were completed in triplicated from independent raw milk samples. […] Incubation was completed in the dark to prevent photodegradation of curcumin. […] Encapsulations measurements were conducted in triplicates. […] The mixture was then vortexed rigorously, followed by centrifugation at 16,000×g for 10 min. […] Curcumin containing samples were kept covered throughout the extraction and measurements steps. The encapsulation efficiency was calculated as follows: where CE is the mass of curcumin extracted from MFGs, and […]. The loading capacity was calculated as follows: where CE is the mass of curcumin extracted from MFGs, and MF is the mass of milk fat in MFGs suspension.

Data set [6] in a line: AAPH measurement of curcumin oxidative stability. In kind it is physicochemical. As to the method:
100 mg/ml encapsulated oleosome and encapsulated whey protein emulsion were respectively added with 40mM AAPH (Sigma) or water as control. Encapsulated oleosome and whey protein emulsion were then rotated and curcumin was extracted at different time points.

[7] abbreviates: 200 μg/g added curcumin/cream, 1 v/v % ethanol, 10 min.
Where [8] appears, read: 400 μg/g added curcumin/cream, 2 v/v % ethanol, 10 min.
Where [9] appears, read: 600 μg/g added curcumin/cream, 3 v/v % ethanol, 10 min.
Where [10] appears, read: 1000 μg/g added curcumin/cream, 5 v/v % ethanol, 10 min.
Where [11] appears, read: 1600 μg/g added curcumin/cream, 8 v/v % ethanol, 10 min.
Setting [12] is: 2000 μg/g added curcumin/cream, 10 v/v % ethanol, 10 min.

Several values for one entry are separate records, joined by “and”; a condition that tells them apart may be missing. Equal entries are not always repeated. Where two headings read alike, the source gives them in different places. Marks after values point to notes of the source that are not given here.

`CCOC(=O)C1=C(COCCN)NC(C)=C(C(=O)OC)C1c1ccccc1Cl` (stereo not shown) [Amlodipine]: in data set [1], the “solubility in water (Remarks)” value is “Drug sparingly soluble in water. Special only has 1-month shelf-life”.

Turning to `CC(=O)Oc1ccccc1C(=O)O` [Aspirin], the “solubility in water (Remarks)” value in data set [1] is recorded as “Very water soluble drug-use dispersible tablets”.

Turning to `COc1ccccc1OCCNCC(O)COc1cccc2[nH]c3ccccc3c12` (stereo not shown) [Carvedilol], the “solubility in water (Remarks)” value in data set [1] is “Drug sparingly soluble in water. Special only has 1-month shelf-life”.

In the case of `O=C1Nc2ccc(Cl)cc2[C@@](C#CC2CC2)(C(F)(F)F)O1` [Efavirenz], in data set [1], the Waters solubility is 8.55 µg/mL. For the same molecule, the “Log P” value in data set [2] is listed as 3.89-4.46.

As to `CCOC(=O)[C@H](CCc1ccccc1)N[C@@H](C)C(=O)N1CCC[C@H]1C(=O)O` [Enalapril], in data set [1], the “solubility in water (Remarks)” value is recorded as “Drug sparingly soluble in water. Crushed tablets suspended in water”.

In turn, `O=c1c(O)c(-c2ccc(O)c(O)c2)oc2cc(O)ccc12` [Fisetin] had a logP in data set [3] of roughly 1.5. The “% Encapsulation efficiency” value in data set [4] (50 μM added compound) is listed as 28.64 ± 5.20%; in data set [4] (100 μM added compound), 29.16 ± 1.50%; in data set [4] (150 μM added compound) it was 30.55 ± 3.76%; in data set [4] (200 μM added compound) it was 29.83 ± 2.47%; in data set [4] (250 μM added compound) it was 28.41 ± 1.56%; in data set [4] (500 μM added compound), 15.89 ± 1.42 %. Besides, the “% Encapsulation efficiency” value is 15.16 ± 1.46 % in data set [4] (1000 μM added compound), 7.57 ± 0.43 % in data set [4] (1500 μM added compound), 14.26 ± 2.77 % in data set [4] (2000 μM added compound) and 4.49 ± 1.08 % in data set [4] (2500 μM added compound). For the same molecule, the “maximal loading capacity (LC)” value in data set [4] is listed as 9.77 μg per gram of milk fat. The “Water/octanol partitioning coefficient, Log P” value in data set [2] is 0.464-2.52 ^(14, 15).

Turning to `CC(C)(C)NCC(O)COc1cccc2c1CC(O)C(O)C2` (stereo not shown) [Nadolol], the “solubility in water (Remarks)” value in data set [1] is reported as “Drug sparingly soluble in water. Special only has 1-month shelf-life”.

On to `CC[C@H](C)C(=O)O[C@H]1C[C@H](O)C=C2C=C[C@H](C)[C@H](CC[C@@H](O)C[C@@H](O)CC(=O)O)[C@H]21` [Pravastatin], for which, in data set [1], the “solubility in water (Remarks)” value is “Drug freely soluble in water, crushed tablets often dissolved in water”.

`O.O=c1c(O)c(-c2ccc(O)c(O)c2)oc2cc(O)cc(O)c12` [Quercetin hydrate]: the “% Encapsulation efficiency” value is on record as 25.27 ± 3.47^ % in data set [4] (50 μM added compound); 45.35 ± 8.53 % in data set [4] (100 μM added compound); 43.78 ± 4.16 % in data set [4] (150 μM added compound); 50.09 ± 3.71 % in data set [4] (200 μM added compound); 48.95 ± 3.47 % in data set [4] (250 μM added compound); 49.00 ± 1.17 % in data set [4] (500 μM added compound). Besides, the “% Encapsulation efficiency” value in data set [4] (1000 μM added compound) worked out at 12.91 ± 1.78 %; in data set [4] (1500 μM added compound) it was 18.38 ± 9.27 %; in data set [4] (2000 μM added compound) it was 17.92 ± 4.31 %; in data set [4] (2500 μM added compound), 13.70 ± 1.30 %. The “maximal loading capacity (LC)” value in data set [4] is listed as 12.97 μg per gram of milk fat. For the same molecule, the “encapsulation efficiency (EE %), maximal/overall value” in data set [4] (over tested concentrations) is 50%. Further, the “Water/octanol partitioning coefficient, Log P” value in data set [2] was 1.82-2.075 ^(16, 17).

As for `CCOC(=O)[C@H](CCc1ccccc1)N[C@@H](C)C(=O)N1[C@H](C(=O)O)C[C@@H]2CCC[C@@H]21` [Ramipril], in data set [1], the “solubility in water (Remarks)” value is “Drug sparingly soluble in water. Crushed tablets suspended in water”.

With `CC(=O)CC(c1ccccc1)c1c(O)c2ccccc2oc1=O` (stereo not shown) [Warfarin], in data set [1], the “solubility in water (Remarks)” value is listed as “Drug freely soluble in water, crushed tablets often dissolved in water”.

Take `COc1cc(/C=C/C(=O)CC(=O)/C=C/c2ccc(O)c(OC)c2)ccc1O` [curcumin]: the “increase in encapsulation yield compared to reported loading values in emulsions formed using edible oils” value in data set [5] is recorded as “at least 3 folds”. Also, the EE % worked out at 62.09 ± 1.46% in data set [5] (setting [7]); 61.17 ± 2.13% in data set [5] (setting [8]); 62.10 ± 2.54% in data set [5] (setting [9]); 66.56 ± 0.13 % in data set [5] (setting [10]); 62.55 ± 0.37% in data set [5] (setting [11]); 59.33 ± 0.73% in data set [5] (setting [12]). For the same molecule, the EE % is on record as 62.36 ± 1.85% in data set [5] (Incubation time 10 min, fixed concentration of curcumin and ethanol); 66.43 ± 4.32% in data set [5] (Incubation time 20 min, fixed concentration of curcumin and ethanol); 61.20 ± 1.78% in data set [5] (Incubation time 30 min, fixed concentration of curcumin and ethanol); 59.75 ± 2.10% in data set [5] (Incubation time 40 min, fixed concentration of curcumin and ethanol); 57.24 ± 0.83 % in data set [5] (Incubation time 50 min, fixed concentration of curcumin and ethanol); 64.30 ± 2.42% in data set [5] (Incubation time 60 min, fixed concentration of curcumin and ethanol). In addition, the “LC %, curcumin/milk fat” value was 368 μg/g and 368.11 ± 2.92 ^a μg/g in data set [5] (setting [7]); 244.69 ± 8.53 ^b μg/g in data set [5] (setting [8]); 372.60 ± 15.27 ^c μg/g in data set [5] (setting [9]); 665.55 ± 1.31 ^d μg/g in data set [5] (setting [10]); 1000.76 ± 5.97 ^e μg/g in data set [5] (setting [11]); 1186.65±14.63 μg/g and 1186 μg/g and 1186.65 ± 14.63 ^ μg/g in data set [5] (setting [12]). Moreover, the “EE % range over curcumin and ethanol concentrations” value in data set [5] (200-2000 μg/g of raw cream, 1 to 10% v/v ethanol, 10 min) is 59-64%. For the same molecule, the “curcumin encapsulated per gram of milk fat” value in data set [5] (MFGs, simple diffusion) is “Greater than 1000 μg”. In addition, the curcumin absorbance remaining in data set [6] (WPI control group (water), at 20 and 24 h) is on record as 90%; in data set [6] (WPI, 40mM AAPH), 0.03%; in data set [6] (WPI, 40mM AAPH, 20 h) it was 22%; in data set [6] (WPI, 40mM AAPH, 24 h), 12%; in data set [6] (oleosome control group (water), within 46 h), “above 90%”; in data set [6] (oleosome, 40mM AAPH), 42%. For the same molecule, the curcumin absorbance remaining in data set [6] (oleosome, 40mM AAPH, 20 h) is on record as 76%; in data set [6] (oleosome, 40mM AAPH, 24 h) it was 68%. Further, the “Log P” value is given as 4.3 in data set [2] and “approximately 4.3” in data set [2] (listed as Curcumin).

The Log P is a log measure of how a compound divides between an organic and an aqueous phase. As usually defined, the logP is a log measure of how a compound divides between an organic and an aqueous phase. Low values mean lower lipophilicity, high ones higher lipophilicity.
